Laboratory results published in US20250179167A1, “IL-6 INHIBITOR AS TREATMENT FOR NEPHROPATHY” (YALE UNIVERSITY, priority 2022, published 2025).

Test system: control and GR^ECKO mice
Experiment: Wnt inhibitor (LGK974) treatment in nondiabetic and diabetic control and GR^ECKO mice
Assay type: in vivo, mouse
Procedure: (FIG. 5A) Schematic diagram showing the treatment protocol of Wnt inhibition in diabetic control and GR^ECKO mice. (FIG. 5B) Physiological parameters including body weight, blood glucose and kidney weight/body weight were analyzed. N=6 biologically independent mice/group combined from two experiments. (FIG. 5C) Masson trichrome, Sirius red and PAS staining as well as immunohistochemical analysis of β-catenin levels in the kidneys of wnti-treated diabetic control and GR^ECKO mice. Representative images are shown; original magnification 300×. Relative area of fibrosis (%) and relative collagen deposition (%) were measured using the ImageJ program. N=8 biologically independent mice/group combined from three experiments were analyzed. Scale bar 50 μm. Data are mean SEM. For all panels one-way ANOVA with Tukey post-test was used for analysis of statistical significance. Significance—*p<0.05, **p<0.01, ***p<0.001.
Physiological parameters including body weight, blood glucose, and kidney weight/body weight are shown. n=7 biologically independent mice/group combined from two experiments were analyzed. Data are mean±SEM. One-way Anova with Tukey multiple comparison post hoc test was used to calculate statistical significance.
FIGS. 27A-27B Histological analysis of kidneys from Wnt inhibitor-treated nondiabetic control and GR^ECKO mice. (FIG. 27A) Masson trichrome staining (MITS) and Sirius red staining in Wnt inhibitor-treated nondiabetic control and GR^ECKO mice. Representative images are shown; original magnification 200×. Area of fibrosis (%) and relative collagen deposition (%) were measured using the ImageJ program. N=5 biologically independent mice/group were analyzed. Data are mean±SEM. Scale bar 50 μm. (FIG. 27B) Immunohistochemical analysis of -catenin expression in the kidneys of Wnt inhibitor-treated nondiabetic control and GR^ECKO mice. Scale bar 30 μm. n=6 biologically independent mice/group combined from two independent experiments were analyzed. Representative images are shown; original magnification 300×. One-way Anova with Tukey multiple comparison post hoc test was used to calculate statistical significance. Significance—*p<0.05, **p<0.01, ***p<0.001.
Immunohistochemical analysis of Snail1, PPAR. and HIF1. expression in the Wnti-treated and untreated control, and GR^ECKO mice. Scale bar 50 μm. n=7 biologically independent mice/group combined from three independent experiments were analyzed. Representative images are shown; original magnification 200×.
Immunofluorescence analysis of α-SMA/CD31/DAPI and E-cadherin/α-SMA/DAPI in kidneys of Wnt inhibitor-treated nondiabetic and diabetic mice. Top panel: α-SMA FITC labelled, CD31 rhodamine labelled and DAPI blue; Lower panel: E-Cadherin FITC-green labelled, α-SMA red rhodamine labelled and DAPI blue. Representative images are shown; original magnification 400×. Scale bar 50 μm. n=6 biologically independent mice/group combined from three independent experiments were analyzed. NC: non-diabetic control; DC: diabetic control; D: diabetic.
To determine whether Wnt inhibition could mitigate the renal fibrosis observed in diabetic GR^ECKO mice, a cohort of animals was treated with LGK974. At the age of 8 weeks, control and GR^ECKO mice were injected with STZ 50 mg/kg for five consecutive days. Sixteen weeks after injection, LGK974 was administered by oral gavage for eight additional weeks (FIG. 5A).
Animal Experimentation. All experiments were performed according to a protocol approved by the Institutional Animal Care and Use Committee at the Yale University School of Medicine and were in accordance with the National Institute of Health (NIH) Guidelines for the Care of Laboratory Animals Mice were housed at an ambient temperature of 68-79° F. with a humidity that ranged between 30%-70%. […]

[1] = nondiabetic control mice or nondiabetic GR^ECKO, compared to untreated nondiabetic controls

Cc1cc(-c2ncc(CC(=O)Nc3ccc(-c4cnccn4)cn3)cc2C)ccn1 [LGK974]
level of EMT (E-cadherin/αSMA double positive cells) (control and diabetic GR^ECKO mice): significantly reduced
kidney weight (diabetic GR^ECKO and diabetic control mice): significant reduction
EndMT (CD31/αSMA double positive cells) (diabetic GR^ECKO mice): less pronounced
relative area of fibrosis (diabetic GR^ECKO mice): less pronounced, though still significant
relative collagen deposition (diabetic GR^ECKO mice): less pronounced, though still significant
tubular damage (diabetic GR^ECKO mice): less pronounced, though still significant
EndMT (CD31/αSMA double positive cells) (diabetic control mice): significantly suppressed
relative area of fibrosis (diabetic control mice): clearly improved
relative collagen deposition (diabetic control mice): clearly improved
tubular damage (diabetic control mice): clearly improved
expression of HIF1α (kidneys of diabetic GR^ECKO): suppressed
expression of Snail1 (kidneys of diabetic GR^ECKO): suppressed
level of PPARα (kidneys of diabetic GR^ECKO): significantly increased
renal fibrogenic phenotype [1]: did not result in any remarkable change
β-catenin level [1]: did not result in any remarkable change
